Reference: publication PMC5040732, “Development of a Novel Quantitative Structure-Activity Relationship Model to Accurately Predict Pulmonary Absorption and Replace Routine Use of the Isolated Perfused Respiring Rat Lung Model” (Pharmaceutical Research, 2016)
Marks after values point to notes of the source that are not given here.

Assays:
[1] = isolated perfused respiring rat lung (IPRLu) model, intratracheal instillation; details: for half-life / recovery at 20 min: male, CD, rat, 100 μL, pH 7.4; for %TDiP: total dose in perfusate at 20 mins; for recovery at 20 min: isolated perfused respiring rat lung (IPRLu), lungs in situ; for %SDiP: solubilised dose in perfusate at 20 mins
Protocol: The IPRLu model, including surgery, dosing and sample collection, was performed by the Laboratory Animal Sciences department at GSK. Methodology was based on that described by Tronde et al. (23;24) but with lungs remaining in situ and intratracheal instillation as the dosing technique. Prior to surgery male CD rats were anaesthetised with intraperitoneal ketamine and medetomidine (Dormitor^TM) at […] and 0.5 ml/kg respectively. In addition, 50U of heparin was administered intravenously via a tail vein. Following confirmation of anaesthesia, the front of the rib cage was removed to access heart and lungs, and the trachea cannulated and secured with a ligature. Respiration was transferred to a positive pressure small animal ventilator (Harvard Apparatus Ltd, Edenbridge, Kent, UK) and maintained at 40 breaths per minute with a tidal volume of 1.8 ml. Following exsanguination, the pulmonary artery and vein were cannulated through incisions in the right and left ventricles in order to isolate the blood pulmonary circulatory system. The rat was then raised and maintained at an angle of 45° using a custom made elevating chamber similar to that described by Brain et al. ([26]). […] After an initial first pass to flush blood from the lung vasculature, the perfusion buffer was then recirculated for approximately 10 minutes to equilibrate and attain the required flow rate. Lungs were visually inspected for leaks and signs of oedema ([27]). Compounds were administered either discretely or co-formulated (2–4 compounds) and experiments were carried out in duplicate. Doses (100 μL) were administered to the trachea slightly above the bifurcation point by introduction of a 50 mm needle Hamilton syringe into the tracheal cannula followed by 3 x 1 ml of air. The tracheal cannula was then reattached to the ventilator and total perfusate was collected over 1 min intervals for 20 mins. Perfusate aliquots (1 ml) were frozen (-20°C) along with terminal lung samples prior to analysis.
Homogenised lung and perfusate samples underwent protein precipitation by addition of a 3-fold excess of acetonitrile containing an internal standard. Following either filtration or centrifugation the resulting filtrate or supernatant was typically dried down under a nitrogen stream and then reconstituted in the mobile phase used for separation by HPLC. Following sample preparation lung and perfusate samples, along with residual dose formulations (pre- and post-centrifugation) were analysed by HPLC tandem mass spectrometry (LC-MS/MS), typically using a generic reverse phase chromatography gradient method with separation on a C18 column (50 x 2.1 mm, 3 μm) and an acidified mobile phase.
The cumulative amount of parent compound crossing the lung into the perfusate by the end of the 20 minute experiment was expressed as % of the total dose or as % of the dose originally in solution (solubilised dose). The relative rate of absorption across the lungs was also calculated, the percentage of the administered dose remaining in the lungs was plotted semilogarithimically against time and the initial rate of absorption expressed as a half-life.

[2] = % of dose in solution in the dose formulation (dose analysis pre- and post-centrifugation); assay type: physicochemical; details: aqueous dose formulation
From the text: All compounds were formulated in an aqueous vehicle, the majority (79%) containing 0.2% Tween 80 in either water or saline. Due to the diverse nature of the molecules investigated, formulations were a mix of solutions and suspensions ranging from <1 to 100% compound in solution. Compound solubility effects were investigated using a tool compound available in three micronised salt forms with varying solubilities. The free base (FB), hydroxynapthoate (HNA) and hydrochloride (HCl) forms were each administered to the IPRLu model at a dose equivalent to 15 μg free base.
Data generated with the IPRLu model on 17 marketed drugs (14 out of 17 designed for inhaled delivery) are shown in Table I. All the compounds display a moderate to high extent of total dose in the perfusate at 20 minutes (10–100%), in keeping with the in-house observation that compounds displaying < <10% carry a high risk of accumulation in the lung upon repeat dosing, which can lead to developability issues and high attrition rates. The marketed compound set can be classified into two groups according to their solubility. The first group are reasonably soluble in the dose formulation (>80% of the parent compound in solution, determined by dose analysis pre- and post-centrifugation) and display similar values for %SDiP and %TDiP. The second group are only partially soluble in the dose formulation (<80% of the parent compound in solution) and therefore display greater values for %SDiP compared to %TDiP.

[3] = mean (n = 2), range in brackets
[4] = other: intratracheal instillation
[5] = solubility in dose vehicle determined post study on a discrete weighing of the compound

Row | %TDiP [1, 3] | % Dose in solution [2] [%] | recovery at 20 min [1, 4] [%] | half-life [1, 4] [min] | %SDiP [1, 3] | SMILES | other results
1 | 61 (59–62) % |  |  |  |  | C[N+]1(C)[C@@H]2C[C@@H](OC(=O)C(O)(c3cccs3)c3cccs3)C[C@H]1[C@@H]1O[C@@H]12 [Tiotropium Bromide] | half-life [1]: 16 min
2 |  | 55 | 78 |  |  | CC(C)(C)NCC(O)c1ccc(O)c(CO)c1 (stereo not shown) [Salbutamol] | 
3 | 32 (23–40) % | 24 | 85 | 32 | 125 (83–166) % | CCCc1c2oc(C(=O)O)cc(=O)c2cc2c(=O)cc(C(=O)O)n(CC)c12 [Nedocromil] | %SDiP ([1]; mean (n = 2), range in brackets, listed as nedocromil): > 100%
4 | 67 (57–78) % | 73 | 77 | 42 |  | CC(C)(O)c1ccccc1CC[C@@H](SCC1(CC(=O)O)CC1)c1cccc(/C=C/c2ccc3ccc(Cl)cc3n2)c1 [Montelukast] | 
5 | 15 (6–24) % | 36 | 69 | 146 | 41 (16–66) % | OCc1cc(C(O)CNCCCCCCOCCCCc2ccccc2)ccc1O (stereo not shown) [Salmeterol] | 
6 | 11 (10,11) % | 88 | 91 | 273 | 12 (12) % | CCc1cc2c(cc1CC)CC(NC[C@H](O)c1ccc(O)c3[nH]c(=O)ccc13)C2 [Indacaterol] | %SDiP ([1]; mean (n = 2), range in brackets, listed as indacaterol): 12%

Second part, the molecule before the results:

Row | SMILES | %TDiP [1, 3] | % Dose in solution [2] [%] | recovery at 20 min [1, 4] [%] | half-life [1, 4] [min] | %SDiP [1, 3] | other results
7 | N=C(N)NC(=O)c1nc(Cl)c(N)nc1N [Amiloride] |  | 100 | 81 | 8 |  | 
8 | C=CC[C@@H]1/C=C(\C)C[C@H](C)C[C@H](OC)[C@H]2O[C@@](O)(C(=O)C(=O)N3CCCC[C@H]3C(=O)O[C@H](/C(C)=C/[C@@H]3CC[C@@H](O)[C@H](OC)C3)[C@H](C)[C@@H](O)CC1=O)[C@H](C)C[C@@H]2OC [Tacrolimus (prograf), Tacrolimus] | 38 (38) % | 21 |  | 28 | 178 (176–180) % | %SDiP ([1]; mean (n = 2), range in brackets, listed as tacrolimus): > 100%
9 | Nc1c(Br)cc(Br)cc1CN[C@H]1CC[C@H](O)CC1 [Ambroxol] |  | 95 | 70 | 39 |  | 
10 | CCN(CC)CC(=O)Nc1c(C)cccc1C [Lidocaine] | 75 (64–82) % | 100 |  |  |  | %SDiP [1, 5]: 75^c %
11 | CCCC1O[C@@H]2C[C@H]3[C@@H]4CCC5=CC(=O)C=C[C@]5(C)[C@H]4[C@@H](O)C[C@]3(C)[C@]2(C(=O)CO)O1 (stereo partly shown) [Budesonide] | 77 (76–79) % | 14 | 84 | 3.3 | 551 (540–561) % | %SDiP ([1]; mean (n = 2), range in brackets, listed as budesonide): > 100%
12 | CC(C)[N+]1(C)[C@@H]2CC[C@H]1C[C@@H](OC(=O)C(CO)c1ccccc1)C2 (stereo partly shown) [Ipratropium Bromide] |  | 100 |  |  |  | 
13 | CCC(=O)O[C@]1(C(=O)SCF)[C@H](C)C[C@H]2[C@@H]3C[C@H](F)C4=CC(=O)C=C[C@]4(C)[C@@]3(F)[C@@H](O)C[C@@]21C [Fluticasone Propionate] | 10 (10) % | 0.5 |  | 115 |  | %SDiP [1, 5]: 2000^c %; %SDiP ([1]; solubility in dose vehicle determined post study on a discrete weighing of the compound, listed as fluticasone propionate): > 100%
14 | CC(=O)N[C@H]1[C@H]([C@H](O)[C@H](O)CO)OC(C(=O)O)=C[C@@H]1N=C(N)N [Zanamivir] | 100 (100–100) % |  | 104 | 7 |  | 
15 | C[C@@H]1C[C@H]2[C@@H]3C[C@H](F)C4=CC(=O)C=C[C@]4(C)[C@@]3(F)[C@@H](O)C[C@]2(C)[C@@]1(OC(=O)c1ccco1)C(=O)SCF [Fluticasone Furoate] | 10 (7–12) % | 3.2 |  | 153 |  | %SDiP [1, 5]: 300^c %; %SDiP ([1]; solubility in dose vehicle determined post study on a discrete weighing of the compound, listed as fluticasone furoate): > 100%
16 | CC1(C)O[C@@H]2C[C@H]3[C@@H]4C[C@H](F)C5=CC(=O)C=C[C@]5(C)[C@H]4[C@@H](O)C[C@]3(C)[C@]2(C(=O)CO)O1 [Flunisolide] | 41 (28–53) % | 42 | 139 | 15 | 96 (66–126) % | %SDiP ([1]; mean (n = 2), range in brackets, listed as flunisolide): 100%
17 | COc1ccc(C[C@@H](C)NC[C@H](O)c2ccc(O)c(NC=O)c2)cc1.COc1ccc(C[C@@H](C)NC[C@H](O)c2ccc(O)c(NC=O)c2)cc1.O=C(O)/C=C/C(=O)O [Formoterol Fumerate] | 47 (42–52) % | 100 |  |  | 47 (42–52) % | Lung T1/2 (mins) ([1]; lung absorption half-life, mean (n = 2), range in brackets): 24 (22–26) mins; Recovery of total dose (%) ([1]; only where lung analysis was carried out, mean (n = 2), range in brackets): 73 (70–76) %
